Data as given in US7038049B2, “Haloanilino quinazolines and therapeutic use thereof” (Parker Hughes Institute, priority 1999, dated 2006).

What was measured:
[1] = tested on: PC3 cells; experiment: TUNEL apoptosis assay, PC3; type: cell-based, human; conditions: 24 hours incubation, FIG. 3
Protocol: Exponentially growing cells were seeded in 6-well tissue culture plates at a density of 50×10^4 cells/well and cultured for 36 hours at 37° C. in a humidified 5% CO2 atmosphere. The supernatant culture medium was carefully aspirated and replaced with fresh medium containing unconjugated EGF or EGF-P154 at a concentration of 10, 25, or 50 μg/ml. After a 36 hour incubation at 37° C. in a humidified 5% CO2 incubator, the supernatants were carefully aspirated and the cells were treated for 1–2 minutes with 0.1% trypsin. The detached cells were collected into a 15 ml centrifuge tube, washed with medium and pelleted by centrifugation at 1000 rpm for 5 minutes. Cells were resuspended in 50 μl of PBS, transferred to poly-L-lysine coated coverslips and allowed to attach for 15 minutes. The cells were washed once with PBS and incubated with equilibration buffer for 10 minutes at room temperature. […]
The cells were incubated with HI-P353 or HI-P219 for 24 hours, fixed, permeabilized, and visualized for DNA degradation in a TUNEL assay using digoxigenin-UTP-labeling kit. In the color photographs, red fluorescence represents nuclei stained with propidium iodide. […]

[2] = tested on: U373 human brain tumor cells; experiment: MTT cytotoxicity assay, U373; type: cell-based; conditions: Homo sapiens, U373 MG
Protocol: (§1) The cytotoxicity assay of various compounds against human tumor cell lines was performed using the MTT (3-[4,5-dimethylthiazol-2-yl]-2,5-diphenyl tetrazolium bromide) assay (Boehringer Mannheim Corp., Indianapolis, Ind.). Briefly, exponentially growing tumor cells were seeded into a 96-well plate at a density of 2.5×10^4 cells/well and incubated for 36 hours at 37° C. prior to drug exposure. On the day of treatment, culture medium was carefully aspirated from the wells and replaced with fresh medium containing the quinazoline compounds at concentrations ranging from 0.1 to 250 μM. Triplicate wells were used for each treatment.
(§2) Human cell lines were obtained from American Type Culture Collection (Rockville, Md.) and maintained as a continuous cell line in Dulbecco's modified Eagles' medium supplemented with 10% fetal bovine serum and antibiotics. Cells used in this study include human leukemia cells (NALM-6 and MOLT-3), human breast cancer cells ([…]), human prostate cancer cells (PC3), and human brain tumor cells (U373).
(§3) The cells were incubated with the various compounds for 24–36 hours at 37° C. in a humidified 5% CO2 atmosphere. To each well, 10 μl of MTT (0.5 mg/ml final concentration) was added and the plates were incubated at 37° C. for 4 hours to allow MTT to form formazan crystals by reacting with metabolically active cells. The formazan crystals were solubilized overnight at 37° C. in a solution containing 10% SDS in 0.01 M HCl. The absorbance of each well was measured in a microplate reader (Labsystems) at 540 nm and a reference wavelength of 690 nm. To translate the OD 540 values into the number of live cells in each well, the OD 540 values were compared to those on standard OD 540—versus—cell number curves generated for each cell line. The percent survival was calculated using the formula:
(§4) [formula] The IC50 values were calculated by non-linear regression analysis. Detection of Apoptosis

[3] = tested on: NALM-6 human leukemia cells; experiment: MTT cytotoxicity assay, NALM-6; type: cell-based; conditions: Homo sapiens
Protocol: as §1, §2, §3, §4

[4] = tested on: PC3 human prostate cancer cells; experiment: MTT cytotoxicity assay, PC3; type: cell-based; conditions: Table 5, fluoro-substituted, value ± spread
Protocol: as §1, §2, §3, §4

[5] = tested on: BT20 human breast cancer cells; experiment: MTT cytotoxicity assay, BT20; type: cell-based; conditions: Homo sapiens
Protocol: as §1, §2, §3, §4

[6] = tested on: MOLT-3 human leukemia cells; experiment: MTT cytotoxicity assay, MOLT-3; type: cell-based; conditions: Homo sapiens
Protocol: as §1, §2, §3, §4

[7] = Pharmacokinetic study in mice; type: in vivo; conditions: mouse, plasma, iv, single 12.5 mg/kg bolus, two-compartment model, read-out: Estimated maximum plasma concentration (Cmax)
Protocol: In pharmacokinetic studies, mice were injected either intravenously (i.v.) via the tail vein or intraperitoneally (i.p.) with a bolus dose of 300 μg/mouse (˜12.5 mg/kg=34 μmols/kg) of HI-P131. Blood samples were obtained from the ocular venous plexus by retroorbital venupuncture prior to and at 3 minutes, 5 minutes, 10 minutes, 15 minutes, 30 minutes, 45 minutes and 1 hour, 2 hours, 4 hours, and 8 hours after administration of HI-P 131. All collected blood samples were heparinized and centrifuged at 7,000 xg for 10 minutes in a microcentrifuge to obtain plasma. The plasma samples were stored at −20° C. until analysis. Aliquots of plasma were used for extraction and HPLC analysis. […] The area under the concentration time curve (AUC) was calculated by the trapezoidal rule between first (0 h) and last sampling time plus C/k, where C is the concentration of last sampling and k is the elimination rate constant. Systemic clearance (CL) was determined by dividing the dose by the AUC. The apparent volume of distribution at steady-state was calculated using the following equation, Vss=Dose·AUMC/(AUC)^2. […]
A highly sensitive quantitative HPLC detection method (Chen et al., 1998, J. Chromatography B (Biomedical sciences), in press) was used to determine the pharmocokinetics of HI-P131. […]

[8] = Single bolus dose toxicity in mice; type: in vivo; conditions: mouse, in vivo, ip
Protocol: (§5) HI-P131 was not toxic to mice at intraperitoneal single bolus doses ranging from 0.5 mg/kg to 250 mg/kg. […] Thus, the maximum tolerated dose (MlD) of HI-P131 was not reached at 250 mg/kg. We next examined the pharmacokinetic features of HI-P131 in mice. A two-compartment pharmacokinetic model was fit to the pharmacokinetics data obtained following the intravenous (i.v.) or intraperitoneal (i.p.) administration of a single non-toxic 12.5 mg/kg bolus dose of HI-P131.

[9] = tested on: mice; experiment: Single bolus dose toxicity in mice; type: in vivo
Protocol: as §5

[10] = Table 5, fluoro-substituted, value ± spread
[11] = NALM-6, Table 5, fluoro-substituted, value ± spread
[12] = BT-20, Table 5, fluoro-substituted, value ± spread
[13] = MOLT-3, Table 5, fluoro-substituted, value ± spread

| Compound | Induction of apoptosis (TUNEL) [1] | IC50 [2, 10] | IC50 [3, 11] | IC50 [4] | IC50 [5, 12] | IC50 [6, 13] | IC50 ([2]; Table 4, OH substituted, 24–36 hours) | IC50 ([3]; NALM-6, Table 4, OH substituted, 24–36 hours) | Cmax [7] | IC50 ([5]; BT-20, Table 4, OH substituted, 24–36 hours) | IC50 ([6]; MOLT-3, Table 4, OH substituted, 24–36 hours) | MTD at 30 day [8] | Side effects or death of toxicity ([9]; 50 mice, 30 day observation period) | Histopathologic lesions in organs ([9]; mouse, in vivo) | Toxicity to mice ([9]; mouse, in vivo) |
| --- | --- | --- | --- | --- | --- | --- | --- | --- | --- | --- | --- | --- | --- | --- | --- |
| COc1cc2ncnc(Nc3ccc(OC(F)(F)F)cc3)c2cc1OC [HI-P219, 4-(4′-Trifluoromethoxylphenyl)-amino-6,7-dimethoxyqui-nazoline] | Apoptosis was induced | 83.6 ± 6.5 µM | 22.3 ± 3 µM | 58.3 ± 3.2 µM | 44.2 ± 10.9 µM | 41.3 ± 4.4 µM |  |  |  |  |  |  |  |  |  |
| COc1cc2ncnc(Nc3ccc(O)cc3)c2cc1OC [HI-P131, 4-(4′-Hydroxylphenyl)-amino-6,7-dimethoxyquinazoline] |  |  |  |  |  |  | > 250 µM | 32.1 µM | 85.6 µM | > 250 µM | 38.6 µM | > 250 mg/kg | None of the 50 mice treated with HI-P131 experienced side effects or died of toxicity | No histopathologic lesions | not toxic |
| COc1cc2ncnc(Nc3cc(F)c(O)c(F)c3)c2cc1OC [HI-P408, 4-(4′-Hydroxyl-3′,5′-difluorophenyl)-amino6,7-dimethoxy-quinazoline] |  | > 250 µM | 116 ± 17.8 µM | > 250 µM | > 250 µM | 228 ± 20.8 µM |  |  |  |  |  |  |  |  |  |
| COc1cc2ncnc(Nc3cccc(OC(F)(F)F)c3)c2cc1OC [HI-P364, 4-(3′-Trifluoromethoxylphenyl)-amino-6,7-dimethoxyquinazoline] |  | 27.7 ± 1.2 µM | 7.9 ± 1.9 µM | > 250 µM | 40.1 ± 8.6 µM | 25.3 ± 9.1 µM |  |  |  |  |  |  |  |  |  |
| COc1cc2ncnc(Nc3ccc(C(c4cccc(N)c4)(C(F)(F)F)C(F)(F)F)cc3)c2cc1OC [HI-P353] |  | 14.5 ± 7.6 µM | 6.1 ± 1.4 µM | 64.9 ± 11.9 µM | 14.1 ± 3.3 µM | 17.4 ± 1.5 µM |  |  |  |  |  |  |  |  |  |
